The text below walks through data of patent publication US11058654B2, “Compositions and methods for the treatment of hemoglobinopathies and thalassemias” (AXCELLA HEALTH INC., priority 2018, dated 2021).

One series has as its system IL-6. The series is described as follows: LPS-induced IL-6 secretion in primary human PBMC-derived macrophages (ELISA). Type of series: cell-based. Conditions: for effect on LPS-induced IL-6 secretion: in words. As to the method:
(§1) Unpurified buffy coats (Research Blood Components) were carefully poured into 50 mL centrifuge tubes and diluted with room temperature Dulbecco's Phosphate Buffered Saline (dPBS) with Calcium and Magnesium (Gibco). Diluted buffy coats were further divided into four total 50 mL centrifuge tubes at 20 mL per tube. Lymphocyte Separation Medium (Corning) was carefully pipetted to the bottom of each centrifuge tube. Mixtures were centrifuged at 850× g for 32 minutes at 20° C. with 0 deceleration and acceleration.
(§2) The PBMC layer was separated from other components after centrifugation and added to new 50 mL centrifuge tube containing 25 mL dPBS. Total volume was brought up to 50 mL with dPBS and centrifuged at 600× g for 10 minutes at 20° C. with acceleration of 9, deceleration of 5. Supernatant was carefully removed from cell pellets. The cell pellets were resuspended using 10 mL dPBS. Total volume was then brought up to 50 mL using dPBS and centrifuged at 450× g for 5 min at 20° C. with acceleration of 9, deceleration of 9. The supernatant removal and cell pellet resuspension was repeated again.
(§3) The supernatant was then carefully removed from cell pellets. Cell pellets were resuspended in 10 mL dPBS without calcium or magnesium and filtered through a 70 uM cell strainer. The total PBMC number was determined using a Cellometer K2 automated cell counter. A total of 5E6 cells were saved for flow cytometric analysis. Remaining cells were centrifuged at 490× g for 5 minutes at 20° C. with acceleration of 9, deceleration of 9.
(§4) CD14+ cells were selected using EasySep™ Human CD14 Positive Selection Kit II ([…] Technologies). Cells were resuspended in cold EasySep™ Buffer ([…] Technologies) at 1×10^8 cells/mL. A total of 100 uL/mL EasySep™ Human CD14 Positive Selection Cocktail II was added to the cell suspension, mixed, and incubated at room temperature for 10 minutes. A total of 100 uL/mL RapidSpheres were added to the mixture and incubated at room temperature for 3 minutes after mixing, then RoboSep buffer was added to bring up the total volume to 10 mL. The mixture in a 15 mL tube was placed in magnet and incubated at room temperature for 3 minutes. Supernatant was discarded and 10 mL fresh EasySep™ buffer was added to 15 mL tube. The addition of RoboSep buffer, mixing, and discarding of supernatant was repeated two more times.
(§5) Negative and positive fractions were centrifuged at 490× g for 5 minutes at 20° C. with acceleration of 9, deceleration of 9, and resuspended in DMEM (Gibco) and 10% Heat Inactivated Fetal Bovine Serum (Atlanta Bio) and Penicillin/Streptomycin. Cells were counted and centrifuged again at […] for 5 minutes at 20° C. with acceleration of 9, deceleration of 9. After centrifugation, cell were resuspended in DMEM (Gibco) and 10% Heat Inactivated Fetal Bovine Serum (Atlanta Bio) and Penicillin/Streptomycin containing 500 U/mL […] and plated at 1-2×10^6 cells/mL on 10 cm tissue culture plates. Cells were kept in 37° C., 5% CO2 in between feedings/harvest.
(§6) Cells were fed every 3-4 days by removing media and unattached cells, centrifuging at 490× g for 5 minutes at 20 C with acceleration of 9, deceleration of 9, and resuspending in fresh DMEM (Gibco) and 10% Heat Inactivated Fetal Bovine Serum (Atlanta Bio) and Penicillin/Streptomycin containing GM-CSF. Resuspended cells were seeded back onto 10 cm tissue culture plates and incubated at 37° C., 5% CO2. Differentiated macrophages were used for subsequent experiments.
(§7) Primary human PMBC derived macrophages were seeded on day 0 at 3.0E4 cells per well in 96-well microplates (ThermoFisher) in Dulbecco's Modified Eagle Medium (DMEM) (Gibco) supplemented with penicillin-streptomycin (Hyclone) and 10% heat inactivated fetal bovine serum (HI-FBS) (Atlanta Bio) and incubated overnight at 37° C., 5% CO2. On day 1, cells were washed once with 150 uL per well DPBS (Gibco) and treated with 75 uL of: • a. […]

The next series deals with TNFa. The series is described as follows: LPS-induced TNFa secretion in primary human PBMC-derived macrophages (ELISA). Type of series: cell-based. The note with it: for TNFa Measurements Mean (baseline subtracted): LPS; for effect on LPS-induced TNFa secretion: in words. How it is done: as §1, §2, §3, §4, §5, §6, §7
Series [1] in a line: Plasma pharmacokinetics after oral gavage in male Sprague-Dawley rats. It is filed as in vivo. Set-up: AUC(0-t): concentration or dose not given beside the values. The note with it: rat, plasma, Mean, oral gavage of RCitNacQCarLHKVS, male Sprague-Dawley rats; for AUC(0-t): read-out: AUC0-5 h; for Cmax: read-out: Cmax; for Tmax: read-out: Tmax. As to the method:
A pharmacokinetic (PK) analysis was performed on plasma concentrations of various combinations of amino acid compounds administered by oral gavage to male Sprague-Dawley rats. Four animals were dosed with RCitNacQCarLHKVS, a test article comprising ten amino acid components: arginine, citrulline, N-acetylcysteine, glutamine, carnitine, leucine, histidine, lysine, valine, and serine (Table 19). Animals were fasted for 2 hours prior to dose administration. Plasma samples were taken immediately pre-dose and 0.5, 1, 2, 3, 4, and 5 hours post-dose.
Bioanalysis of collected plasma samples for amino acid content was performed at Axcella Health using an LC-MS method (Section 2.1). Bioanalytical data were analyzed using noncompartmental analysis with Phoenix® WinNonLin® (v8.1).
An LC/MS method utilizing HILIC chromatography and high-resolution mass spectrometry was used to quantify amino acids in rat plasma. The samples were prepared by protein precipitation and spiked with stable-labeled amino acid internal standard for each analyte. […] QCs, spiked into rat plasma, were utilized to assess the accuracy of the method.
PK parameters of test article components were determined from individual rat plasma concentration-time data by employing a noncompartmental approach using Phoenix WinNonlin® (Version 8.1) software. Nominal times were used to calculate the toxicokinetic parameters. […] This program analyzed data using the standard methods described by Gibaldi and Perrier (see M. Gibaldi and D. Perrier, Pharmacokinetics, 2nd edition, New York: Marcel-Dekker, Inc.; 1982.).

For orientation: Cmax means the maximum level reached in the sampled fluid or tissue. A word on the Tmax: it is the time at which the peak concentration occurs. Consider `N=C(N)NCCC[C@H](N)C(=O)O` [Arginine], for which the “IL-6 Measurements Mean” value is listed as 0 in the series with IL-6 (Donor 1, Arginine Conc. 109 μM (baseline)); −181.36 with IL-6 (Donor 1, Arginine Conc. 1088 μM, baseline subtracted); −186.57 with IL-6 (Donor 1, Arginine Conc. 2720 μM, baseline subtracted); 357.4394 with IL-6 (Donor 1, Arginine Conc. 5440 μM, baseline subtracted); 2.37E−15 with IL-6 (Donor 2, Arginine Conc. 109 μM (baseline)); −9.701 with IL-6 (Donor 2, Arginine Conc. 1088 μM, baseline subtracted). Moreover, the “IL-6 Measurements Mean” value was −13.6102 in the series with IL-6 (Donor 2, Arginine Conc. 2720 μM, baseline subtracted); −12.4164 in the series with IL-6 (Donor 2, Arginine Conc. 5440 μM, baseline subtracted); 0 with IL-6 (Donor 3, Arginine Conc. 109 μM (baseline)); 31.5786 with IL-6 (Donor 3, Arginine Conc. 1088 μM, baseline subtracted); −7.503 in the series with IL-6 (Donor 3, Arginine Conc. 2720 μM, baseline subtracted); −6.81 with IL-6 (Donor 3, Arginine Conc. 5440 μM, baseline subtracted). For the same compound, the “effect on LPS-induced IL-6 secretion” value with IL-6 (Donor 1) is “increased”. The “TNFa Measurements Mean (baseline subtracted)” value with TNFa (Donor 1, Conc. 109 μM (baseline)) is 0; with TNFa (Donor 1, Conc. 1088 μM) it was −24.33; in the series on TNFa (Donor 1, Conc. 2720 μM), 5.12; in the series on TNFa (Donor 1, Conc. 5440 μM), 62.06; in the series with TNFa (Donor 2, Conc. 109 μM (baseline)) it was 1.42E−14; with TNFa (Donor 2, Conc. 1088 μM) it was −12.7222. Also, the “TNFa Measurements Mean (baseline subtracted)” value in the series on TNFa (Donor 2, Conc. 2720 μM) is given as −3.763; in the series with TNFa (Donor 2, Conc. 5440 μM), −0.5738; with TNFa (Donor 3, Conc. 109 μM (baseline)), 3.55E−15; with TNFa (Donor 3, Conc. 1088 μM), 3.131; in the series with TNFa (Donor 3, Conc. 2720 μM) it was −0.9669; with TNFa (Donor 3, Conc. 5440 μM), −1.767. In series [1], the AUC(0-t) is 2210 µM·h. Besides, the Cmax in series [1] is 565 µM. Further, the Tmax in series [1] came out at 82.8 min.

Turning to `NC(=O)CC[C@H](N)C(=O)O` [Glutamine], the “effect on LPS-induced IL-6 secretion” value with IL-6 (Donor 1) was “increased”; with IL-6 (Donor 2), “increased”; in the series on IL-6 (Donor 3), “significantly increased”. The “effect on LPS-induced TNFa secretion” value in the series on TNFa (Donor 2) and with TNFa (Donor 3) was “increased” in each case. Moreover, the AUC(0-t) in series [1] amounted to 2370 µM·h. Also, in series [1], the Cmax was found to be 605 µM. Besides, the Tmax in series [1] stood at 30 min.

For the compound `CC(=O)N[C@@H](CS)C(=O)O` [N-Acetyl Cysteine, N-acetylcysteine], the “IL-6 Measurements Mean” value with IL-6 (Donor 1, Conc. 0 X (baseline)) is given as 0; in the series on IL-6 (Donor 2, Conc. 0 X (baseline)), −2.4E−15; in the series with IL-6 (Donor 2, Conc. 20 X, baseline subtracted), −24.9999; with IL-6 (Donor 3, Conc. 0 X (baseline)), −9.5E−15. In addition, the “effect on LPS-induced IL-6 secretion” value with IL-6 (Donor 1), in the series with IL-6 (Donor 2) and with IL-6 (Donor 3) was “significantly reduced” throughout. The “effect on LPS-induced TNFa secretion” value in the series with TNFa (Donor 1), with TNFa (Donor 2) and in the series with TNFa (Donor 3) was “significantly reduced” each time.
